Reference: patent publication US6686369B1, “α-hydrdroxylic acid derivatives, their production and use” (Abbott GmbH & Co., KG, priority 1996, dated 2004)
pKi: −log10 of the molar value.

How the values were obtained:
[1] = target: T1, cloned human ETA receptor (Homo sapiens, UniProt P25101); assay: ETA receptor binding assay ([125I]-ET1, membranes of ETA receptor-expressing CHO cells); settings: CHO cell membranes, 25 pM [125I]-ET1, 25° C.
T1 construct: expressed in transfected cells; host or cells: CHO cells
T1 sequence (P25101 21-427): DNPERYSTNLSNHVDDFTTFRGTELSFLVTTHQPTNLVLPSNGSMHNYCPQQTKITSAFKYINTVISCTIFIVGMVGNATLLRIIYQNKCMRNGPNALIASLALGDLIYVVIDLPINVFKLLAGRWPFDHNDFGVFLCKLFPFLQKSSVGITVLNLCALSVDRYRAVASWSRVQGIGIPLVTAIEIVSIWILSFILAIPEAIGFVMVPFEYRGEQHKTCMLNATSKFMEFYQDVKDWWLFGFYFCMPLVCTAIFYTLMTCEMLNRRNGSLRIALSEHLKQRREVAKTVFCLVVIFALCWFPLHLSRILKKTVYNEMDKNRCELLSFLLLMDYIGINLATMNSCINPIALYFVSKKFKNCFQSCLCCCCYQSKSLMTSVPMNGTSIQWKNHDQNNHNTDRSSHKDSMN
Protocol: (§1) For binding studies, cloned human ETA receptor-expressing CHO cells and guinea-pig cerebellar membranes with >60% ETB relative to ETA receptors were employed.
The ETA receptor-expressing CHO cells were grown in F12 medium with 10% fetal calf serum, 1% glutamine, 100 U/ml penicillin and 0.2% streptomycin (Gibco BRL, Gaithersburg, Md., USA). After 48 h, the cells were washed with PBS and incubated with 0.05% trypsin-containing PBS for 5 min. After neutralization with F12 medium, the cells were collected by centrifugation at 300×g. For cell lysis, the pellet was briefly washed with lysis buffer (5 mM Tris-HCl, pH 7.4 with 10% glycerol) and then incubated at a concentration of 10^7 cells/ml of lysis buffer at 4° C. for 30 min. The membranes were centrifuged at 20,000×g for 10 min, and the pellet was stored in liquid nitrogen.
(§2) For the ETA and ETB receptor binding assays, the membranes were suspended in incubation buffer (50 mM Tris-HCl, pH 7.4 with 5 mM MnCl2, 40 μg/ml bacitracin and 0.2% BSA) at a concentration of 50 μg of protein per assay mixture and incubated at 25° C. with 25 pM [125I [sic]]-ET1 (ETA receptor assay) or 25 pM [125I [sic]]-RZ3 (ETB receptor assay) in the presence and absence of test substance. The nonspecific binding was determined with 10^−7 M ET1. Filtration through GF/B glass fiber filters (Whatman, England) in a Skatron cell collector (Skatron, Lier, Norway) after 30 min separated the free and the bound radioligand, and the filters were washed with ice-cold Tris-HCl buffer, pH 7.4 with 0.2% BSA. The radioactivity collected on the filters was quantified using a Packard 2200 CA liquid scintillation counter.

ETB receptor = target: T2, ETB receptor (Cavia porcellus, UniProt H0VTF3); assay: ETB receptor binding assay ([125I]-RZ3, guinea-pig cerebellar membranes); settings: 25 pM [125I]-RZ3, 25° C.
T2 construct: Guinea-pig cerebella were homogenized in a Potter-Elvejhem homogenizer; from tissue; host or cells: guinea-pig cerebellum membranes
T2 sequence (H0VTF3 27-415): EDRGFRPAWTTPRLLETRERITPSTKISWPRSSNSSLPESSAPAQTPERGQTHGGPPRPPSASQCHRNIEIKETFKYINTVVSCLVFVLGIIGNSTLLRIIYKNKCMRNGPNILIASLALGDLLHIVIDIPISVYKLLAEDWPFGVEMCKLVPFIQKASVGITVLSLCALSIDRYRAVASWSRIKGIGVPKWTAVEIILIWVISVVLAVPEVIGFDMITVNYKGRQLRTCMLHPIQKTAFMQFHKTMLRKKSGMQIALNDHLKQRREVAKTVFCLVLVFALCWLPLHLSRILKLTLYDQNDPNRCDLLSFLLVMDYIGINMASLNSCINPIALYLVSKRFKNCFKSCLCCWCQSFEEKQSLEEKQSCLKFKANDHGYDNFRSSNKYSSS
Protocol: as §1
Guinea-pig cerebella were homogenized in a Potter-Elvejhem homogenizer and obtained by differential centrifugation at 1000×g for 10 min and repeated centrifugation of the supernatant at 20,000×g for 10 min.
as §2

pKi [1]	pKi (ETB receptor)	Structure (SMILES)
8.40	6.60	CCC(c1ccccc1)(c1ccccc1)C(Oc1nc(C)cc(OC)n1)C(=O)O (centres unmarked) [Compound I-12]
7.60	6.02	COc1cc(OC)nc(OC(C(=O)O)C(C)(c2ccccc2)c2ccccc2)n1 (centres unmarked) [Compound I-1]
8.40	6.27	CCC(c1ccccc1)(c1ccccc1)C(Oc1nc(C)cc(C)n1)C(=O)O (centres unmarked) [Compound I-15]
8.46	6.54	COc1cc(C)nc(OC(C(=O)O)C(C)(c2ccccc2)c2ccccc2)n1 (centres unmarked) [Compound I-2]
7.70	5.85	CCC(c1ccccc1)(c1ccccc1)C(Oc1nc(OC)cc(OC)n1)C(=O)O (centres unmarked) [Compound I-11]
8.30	6.35	COc1cc(C)nc(OC(C(=O)O)C(CO)(c2ccccc2)c2ccccc2)n1 (centres unmarked) [Compound I-20]
8.40	6.49	Cc1cc(C)nc(OC(C(=O)O)C(C)(c2ccccc2)c2ccccc2)n1 (racemic) [Compound I-3, 2-(4,6-Dimethyl-2-pyrimidinyloxy)-3,3-diphenylbutyric Acid]
